Each block holds one compound with its values, some of them ahead of it. The source made the active and inactive calls. No cut-off for these calls is given here.
What was measured:
[1] = molecular target: T1, Glucagon-like peptide 1 receptor (Homo sapiens, UniProt P43220); assay: Positive allosteric modulator activity at human GLP-1R expressed in HEK293 cells assessed as fold increase in potentiation of GLP-1(9-36) induced cAMP accumulation in presence of IBMX relative to GLP-1(9-36); type: functional, cell-based
[2] = molecular target: T1, Glucagon-like peptide 1 receptor; assay: Positive allosteric modulator activity at human GLP-1R expressed in HEK293 cells assessed as potentiation of EC20 GLP-1(9-36) induced cAMP accumulation in presence of IBMX relative to GLP-1(9-36); type: functional, cell-based
[3] = molecular target: T1, Glucagon-like peptide 1 receptor; assay: Positive allosteric modulator activity at human GLP-1R expressed in HEK293 cells assessed as potentiation of GLP-1(9-36) induced cAMP accumulation by measuring maximal efficacy in presence of IBMX relative to GLP-1(9-36); type: functional, cell-based; conditions: filed as positive allosteric modulator
[4] = molecular target: T1, Glucagon-like peptide 1 receptor; assay: Positive allosteric modulator activity at human GLP-1R expressed in HEK293 cells assessed as potentiation of EC20 GLP-1(9-36) induced cAMP accumulation by measuring maximal efficacy in presence of IBMX relative to GLP-1(9-36); type: functional, cell-based; conditions: filed as positive allosteric modulator
[5] = Tmax in CD1 mouse at 3 mg/kg, po measured upto 16 hrs by LC-MS/MS analysis; type: ADME, organism-based; conditions: in vivo
[6] = Half life in Sprague-Dawley rat at 1 mg/kg, iv measured upto 8 hrs by LC-MS/MS analysis; type: ADME, organism-based; conditions: in vivo
[7] = Clearance in Sprague-Dawley rat at 1 mg/kg, iv measured upto 8 hrs by LC-MS/MS analysis; type: ADME, organism-based; conditions: in vivo
[8] = molecular target: T1, Glucagon-like peptide 1 receptor; assay: Agonist activity at human GLP-1R expressed in CHO-K1 cells assessed as fold increase in potentiation of EC50 GLP-1(7-36) induced beta-arrestin recruitment; type: functional, cell-based
[9] = AUC in CD1 mouse at 1 mg/kg, iv measured upto 8 hrs by LC-MS/MS analysis; type: ADME, organism-based; design: time < 8 hrs, dose 1 mg/kg, route iv; conditions: in vivo
[10] = Half life in Beagle dog at 1 mg/kg, iv measured upto 8 hrs by LC-MS/MS analysis; type: ADME, organism-based, Canis lupus familiaris; conditions: in vivo
[11] = molecular target: T1, Glucagon-like peptide 1 receptor; assay: Partial agonist activity at human GLP-1R expressed in HEK293 cells assessed as potentiation of GLP-1(9-36) induced cAMP accumulation in presence of IBMX; type: functional, cell-based
[12] = Half life in CD1 mouse at 1 mg/kg, iv measured upto 8 hrs by LC-MS/MS analysis; type: ADME, organism-based; conditions: in vivo
[13] = AUC in Sprague-Dawley rat at 1 mg/kg, iv measured upto 8 hrs by LC-MS/MS analysis; type: ADME, organism-based; design: time < 8 hrs, dose 1 mg/kg, route iv; conditions: in vivo
[14] = Clearance in CD1 mouse at 1 mg/kg, iv measured upto 8 hrs by LC-MS/MS analysis; type: ADME, organism-based; conditions: in vivo
[15] = Cmax in Sprague-Dawley rat at 1 mg/kg, iv measured upto 8 hrs by LC-MS/MS analysis; type: ADME, organism-based; design: dose 1 mg/kg, time < 8 hrs, route iv; conditions: in vivo
[16] = molecular target: T1, Glucagon-like peptide 1 receptor; assay: Positive allosteric modulator activity at human GLP-1R transfected in rat INS-1 832/13 cells assessed as increase in GLP-1(9-36) induced insulin levels at 3 uM in presence of high glucose; type: cell-based; conditions: filed as positive allosteric modulator
[17] = Clearance in Beagle dog at 1 mg/kg, iv measured upto 8 hrs by LC-MS/MS analysis; type: ADME, organism-based, Canis lupus familiaris; conditions: in vivo
[18] = AUC in Sprague-Dawley rat at 3 mg/kg, po measured upto 16 hrs by LC-MS/MS analysis; type: ADME, organism-based; design: dose 3 mg/kg, time < 16 hrs, route po; conditions: in vivo
[19] = molecular target: T1, Glucagon-like peptide 1 receptor; assay: Agonist activity at human GLP-1R expressed in CHO-K1 cells assessed as potentiation of GLP-1(9-36) induced beta-arrestin recruitment by measuring maximal efficacy relative to GLP-1(9-36); type: functional, cell-based
[20] = molecular target: T1, Glucagon-like peptide 1 receptor; assay: Partial agonist activity at human GLP-1R expressed in HEK293 cells assessed as potentiation of GLP-1(9-36) induced cAMP accumulation by measuring maximal efficacy in presence of IBMX relative to GLP-1(9-36); type: functional, cell-based
[21] = AUC in CD1 mouse at 3 mg/kg, po measured upto 16 hrs by LC-MS/MS analysis; type: ADME, organism-based; design: dose 3 mg/kg, time < 16 hrs, route po; conditions: in vivo
[22] = Volume of distribution at steady state in Beagle dog at 1 mg/kg, iv measured upto 8 hrs by LC-MS/MS analysis; type: ADME, organism-based, Canis lupus familiaris; conditions: in vivo, read-out: Vdss
[23] = Cmax in CD1 mouse at 1 mg/kg, iv measured upto 8 hrs by LC-MS/MS analysis; type: ADME, organism-based; design: time < 8 hrs, dose 1 mg/kg, route iv; conditions: in vivo
[24] = Volume of distribution at steady state in CD1 mouse at 1 mg/kg, iv measured upto 8 hrs by LC-MS/MS analysis; type: ADME, organism-based; conditions: in vivo, read-out: Vdss
[25] = molecular target: T1, Glucagon-like peptide 1 receptor; assay: Positive allosteric modulator activity at human GLP-1R transfected in rat INS-1 832/13 cells assessed as potentiation of GLP-1(9-36) induced cAMP accumulation; type: functional, cell-based
[26] = Half life in CD1 mouse at 3 mg/kg, po measured upto 16 hrs by LC-MS/MS analysis; type: ADME, organism-based; conditions: in vivo
[27] = Cmax in Beagle dog at 1 mg/kg, iv measured upto 8 hrs by LC-MS/MS analysis; type: ADME, organism-based, Canis lupus familiaris; design: time < 8 hrs, dose 1 mg/kg, route iv; conditions: in vivo
[28] = molecular target: T1, Glucagon-like peptide 1 receptor; assay: Agonist activity at human GLP-1R expressed in HEK293 cells assessed as potentiation of GLP-1(7-36) induced cAMP accumulation; type: functional, cell-based
[29] = Oral bioavailability in CD1 mouse at 3 mg/kg measured upto 16 hrs by LC-MS/MS analysis; type: ADME, organism-based; conditions: in vivo
[30] = molecular target: T1, Glucagon-like peptide 1 receptor; assay: Positive allosteric modulator activity at human GLP-1R transfected in rat INS-1 832/13 cells assessed as fold increase in potentiation of GLP-1(7-36) induced cAMP accumulation at 0.1 uM; type: functional, cell-based
[31] = molecular target: T1, Glucagon-like peptide 1 receptor; assay: Positive allosteric modulator activity at human GLP-1R transfected in rat INS-1 832/13 cells assessed as potentiation of GLP-1(9-36) induced cAMP accumulation by measuring maximal efficacy at 3 uM relative to GLP-1(9-36); type: functional, cell-based; conditions: filed as positive allosteric modulator
[32] = Volume of distribution at steady state in Sprague-Dawley rat at 1 mg/kg, iv measured upto 8 hrs by LC-MS/MS analysis; type: ADME, organism-based; conditions: in vivo, read-out: Vdss
[33] = Cmax in Sprague-Dawley rat at 3 mg/kg, po measured upto 16 hrs by LC-MS/MS analysis; type: ADME, organism-based; design: time < 16 hrs, dose 3 mg/kg, route po; conditions: in vivo
Mus musculus [34] = assay: (§1) Anti-hyperglycemic activity in overnight-fasted GIPR KO C57BL/6 mouse assessed as reduction in blood glucose AUC at 10 mg/kg, po pretreated with compound for 30 mins followed by dextrose addition measured every 15 mins for 60 mins in presence of sitagliptin by oral glucose tolerance test relative to control; type: functional; design: scale not given: the % may be the effect or the level left; conditions: time 90 min, 1.5 h
Mus musculus [35] = assay: Anti-hyperglycemic activity in overnight-fasted GIPR KO C57BL/6 mouse assessed as reduction in blood glucose AUC at 10 mg/kg, po pretreated with compound for 30 mins followed by dextrose addition measured every 15 mins for 60 mins by oral glucose tolerance test relative to control; type: functional; design: scale not given: the % may be the effect or the level left; conditions: time 90 min, 1.5 h
[36] = Half life in Sprague-Dawley rat at 3 mg/kg, po measured upto 16 hrs by LC-MS/MS analysis; type: ADME, organism-based; conditions: in vivo
Mus musculus [37] = assay: Anti-hyperglycemic activity in overnight-fasted GIPR KO C57BL/6 mouse assessed as reduction in blood glucose AUC at 30 mg/kg, po pretreated with compound for 30 mins followed by dextrose addition measured every 15 mins for 60 mins by oral glucose tolerance test relative to control; type: functional; design: scale not given: the % may be the effect or the level left; conditions: time 90 min, 1.5 h
[38] = Cmax in CD1 mouse at 3 mg/kg, po measured upto 16 hrs by LC-MS/MS analysis; type: ADME, organism-based; design: dose 3 mg/kg, time < 16 hrs, route po; conditions: in vivo
[39] = Oral bioavailability in Sprague-Dawley rat at 3 mg/kg measured upto 16 hrs by LC-MS/MS analysis; type: ADME, organism-based; conditions: in vivo
Mus musculus [40] = assay: as §1, with “30” for “10”; type: functional; design: scale not given: the % may be the effect or the level left; conditions: time 90 min, 1.5 h
[41] = Tmax in Sprague-Dawley rat at 3 mg/kg, po measured upto 16 hrs by LC-MS/MS analysis; type: ADME, organism-based; conditions: in vivo
[42] = molecular target: T1, Glucagon-like peptide 1 receptor; assay: Agonist activity at human GLP-1R expressed in HEK293 cells assessed as potentiation of GLP-1(9-36) induced cAMP accumulation in presence of IBMX; type: functional, cell-based
[43] = molecular target: T1, Glucagon-like peptide 1 receptor; assay: Agonist activity at human GLP-1R expressed in HEK293 cells assessed as potentiation of GLP-1(9-36) induced cAMP accumulation by measuring maximal efficacy at 0.12 uM in presence of IBMX relative to GLP-1(9-36); type: functional, cell-based; conditions: filed as agonist
[44] = molecular target: T1, Glucagon-like peptide 1 receptor; assay: Agonist activity at human GLP-1R expressed in CHO-K1 cells assessed as potentiation of GLP-1(9-36) induced beta-arrestin recruitment; type: functional, cell-based
[45] = AUC in Beagle dog at 1 mg/kg, iv measured upto 8 hrs by LC-MS/MS analysis; type: ADME, organism-based, Canis lupus familiaris; design: time < 8 hrs, dose 1 mg/kg, route iv; conditions: in vivo

T1 sequence (P43220 whole entry): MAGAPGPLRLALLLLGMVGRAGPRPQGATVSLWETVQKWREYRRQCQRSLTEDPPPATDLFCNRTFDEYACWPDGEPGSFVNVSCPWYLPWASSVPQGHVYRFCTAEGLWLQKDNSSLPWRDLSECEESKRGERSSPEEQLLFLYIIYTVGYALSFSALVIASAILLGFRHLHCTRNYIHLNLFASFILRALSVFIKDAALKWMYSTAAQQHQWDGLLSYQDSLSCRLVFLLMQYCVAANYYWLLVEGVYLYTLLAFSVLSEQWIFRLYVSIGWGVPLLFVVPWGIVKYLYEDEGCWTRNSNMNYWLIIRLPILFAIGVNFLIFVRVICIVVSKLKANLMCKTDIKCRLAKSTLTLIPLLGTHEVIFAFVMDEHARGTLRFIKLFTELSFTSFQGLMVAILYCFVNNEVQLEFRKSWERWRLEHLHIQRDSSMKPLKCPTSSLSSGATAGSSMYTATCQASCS

- fold change (FC) [1]: 15000
- EC50 [2]: 24 nM
- Emax [3]: 88%
- Emax [4]: 120%
Compound: COc1ccc(Cl)c([C@@H](C)n2cnc3ccc(-c4ccccc4[C@H]4CCCCN4)cc32)c1Cl

- fold change (FC) [1]: 250
- EC50 [2]: 800 nM
- Emax [3]: 115%
- Emax [4]: 102%
Compound: COc1ccc(Cl)c([C@@H](C)n2cnc3ccc(Br)cc32)c1Cl

- fold change (FC) [1]: 7300
- EC50 [2]: 14 nM
- Emax [3]: 103%
- Emax [4]: 104%
Compound: CC(C(=O)O)c1ccccc1-c1cc2c(cn1)ncn2[C@H](C)c1c(Cl)ccc(C2CC2)c1Cl (some centres not stated)

Continued, compound first:

Compound: C[C@H](c1c(Cl)ccc(C2CC2)c1Cl)n1cnc2cnc(Br)cc21
- fold change (FC) [1]: 300
- EC50 [2]: 1800 nM
- Emax [3]: 110%
- Emax [4]: 113%

Compound: C[C@H](c1c(Cl)ccc(C2CC2)c1Cl)n1cnc2cnc(-c3ccccc3[C@@H](C)C(=O)O)cc21
- Tmax [5]: 0.58 h
- half-life [6]: 0.6 h
- clearance [7]: 41.9 mL/min/kg
- fold change (FC) [8]: 1.9
- AUC at 8 h [9]: 3.64 µM·h
- half-life [10]: 0.6 h
- EC50 [11]: 1800 nM
- half-life [12]: 2.1 h
- AUC at 8 h [13]: 0.859 µM·h
- clearance [14]: 9 mL/min/kg
- Cmax [15]: 1420 nM
- Activity [16]: Active
- clearance [17]: 18.5 mL/min/kg
- AUC at 16 h [18]: 1.16 µM·h
- Emax [19]: 10%
- Emax [20]: 13%
- AUC at 16 h [21]: 7.3 µM·h
- Vd [22]: 0.3 L/kg
- fold change (FC) [1]: 830
- Cmax [23]: 1430 nM
- Vd [24]: 1.6 L/kg
- EC50 [25]: 7 nM
- EC50 [2]: 270 nM
- half-life [26]: 1.6 h
- Cmax [27]: 6870 nM
- EC50 [28]: 0.085 nM
- bioavailability [29]: 67%
- fold change (FC) [30]: 2.7
- Emax [31]: 87%
- Vd [32]: 1.6 L/kg
- Cmax [33]: 183 nM
- Activity (Mus musculus [34]): 29%
- Activity (Mus musculus [35]): 9%
- half-life [36]: 2.9 h
- Activity (Mus musculus [37]): 40%
- Cmax [38]: 2040 nM
- bioavailability [39]: 45%
- Emax [3]: 102%
- Emax [4]: 98%
- Activity (Mus musculus [40]): 65%
- Tmax [41]: 1.8 h
- EC50 [42]: 7 nM
- Emax [43]: 92%
- EC50 [44]: 12 nM
- AUC at 8 h [45]: 1.88 µM·h

Compound: N[C@@H](CC(=O)N1CCn2c(nnc2C(F)(F)F)C1)Cc1cc(F)c(F)cc1F [SITAGLIPTIN]
- Activity (Mus musculus [35]): 18%

Reference: ChEMBL document CHEMBL5096166, “Discovery of an Orally Efficacious Positive Allosteric Modulator of the Glucagon-like Peptide-1 Receptor” (J Med Chem, 2021)
